The values that follow come from patent publication US9381245B2, “Methods for inhibiting osteolysis” (New York University, priority 2012, dated 2016).

“Also recorded” adds a separate entry of the source.

Assay [1] deals with semaphorin 4D. Description: Sema4D expression (Western blot, real time RT-PCR) in osteoclasts from primary murine bone marrow cells and RAW264.7 cells. The class given is cell-based. The note with it: CGS21680 1 μM; protein kinase A-dependent. The protocol: (§1) A.) Total cell lysates from primary murine bone marrow cells alone (basal) or after osteoclast differentiation in the presence of saline, CGS21680 (1 μM) with/without ZM241385 (1 μM) were subject to Western Blot detection of sema4D. Shown is a representative experiment of 3. B.) RAW264.7 osteoclasts, infected with a lentiviral vector expressing either shRNA for the catalytic subunit of PKA, scrambled shRNA, or primary murine bone marrow cells were cultured in the presence of saline (Black line) or CGS21680 (1 μM, Red Line) with/without ZM241385 (1 μM, Blue Line) for the time periods indicated before harvest of the cells, collection of RNA and real time RTPCR. Results represent the means (±SEM) of 5 separate determinations. C. Calvarium from sham or wear particle-treated wild type (C57B1/6) mice or adenosine A2A receptor knockout mice (C57B1/6 background) were stained for sema4D. D. Soft tissue from patients stained for semaphorin 4D (original magnification 800×). On the left is soft tissue obtained at the time of joint replacement (Representative of 14). On the right is tissue obtained at time of prosthesis revision (representative of 12).

Assay [2] deals with wear particle-induced osteolysis. The assay is described as follows: New bone formation at sites of wear particle-induced osteolysis (Xenolight Rediject Bone Probe 680, IVIS). As to conditions: daily injections of CGS21680 into air pouch over calvarium. The format is in vivo, mice. On the procedure:
Mice (C57B1/6) underwent formation of an air pouch over the calvarium and then exposed to saline (sham) or wear particles […] followed by daily injections of 200 μl of saline or CGS21680, as previously described. Animals were injected with Xenolight Rediject Bone Probe 680 (2 nmoles in 150 ul) followed by scanning in the IVIS apparatus. The intensity of staining is indicated by increasing yellow coloration. The fluorescence is detectable without change for 3-4 days and persists for as long as 2 weeks although all of these scans were taken on the day of injection. Shown are representative scans of ⅕ animals per group. The intensity of fluorescence was quantitated in a specific area of interest using software provided with the apparatus and the mean (±SEM) was calculated for 5 animals in each. In these experiments osteolysis will be monitored as porosity of the calvaria, measured by microCT, as has been previously described (Mediero, et al., Sci Transl Med, 2012. 4(135): 135-65). […] In addition, sema4D, netrin-1, GM-CSF, M-CSF, IP-10, MCP-1, IL-1, TNF, IL-6, IL-10, osteoprotegerin, osteocalcin and RANKL in supernates of cultured calvaria will be quantified by luminex assay, as has been previously described (Mediero, et al., Sci Transl Med, 2012. 4(135): 135-65). […]

For assay [3], the system named is RANKL. Description: RANKL real time RT-PCR in normal human osteoblasts differentiated from marrow cells. The class given is cell-based. The note with it: CGS21680 1 μM; normalized to GAPDH. On the procedure: (§2) A. Shown are representative sections (from 10 different mice) of mouse calvarium after formation of an air pouch alone (sham) or after formation of an air pouch and exposure to wear particles for 4 weeks in the presence of saline or saline containing CGS21680 (1 μM), as we have previously described (Mediero, et al., Sci Transl Med, 2012. 4(135): 135-65). Dark brown staining is positive. B. RNA was isolated from normal human osteoblasts (Alizarin Red+/Alkaline Phosphatase+ cells) after differentiation from normal marrow cells in the presence or absence of CGS21680 (1 μM). Real time RT-PCR was carried out for RANKL and normalized to GAPDH. Shown are mean (+/−SD) results of two different samples carried out in duplicate.

In assay [4] the test system is osteoprotegerin. Description: Osteoprotegerin staining of calvarium in murine model of wear particle-induced osteolysis. The format is in vivo, mice. The note with it: wear particles 4 weeks; saline containing CGS21680 1 μM. The protocol: as §2
The test system of assay [5] is netrin-1. Description: Western blot of netrin-1 in supernate of RAW264.7 cells differentiating to osteoclasts. The note with it: CGS21680 1 μM, RANKL and M-CSF. The class given is cell-based, murine. The protocol:
(§3) A.) Bone marrow cells from WT and radiation chimeric netrin^−/− bone marrow mice were isolated and induced to differentiate into osteoclasts by incubation with RANKL and M-CSF. […] Cells from 5 different mice repeated in duplicate. […] A2A receptor stimulation reduces Unc5b, but not DCC, expression. Representative of 2 experiments. C. Bone mineral density (BMD) determined by Pixamouse small animal Dexa scanner. WT mice and Netrin1 KO mice are chimeras generated by infusion of either normal or netrin-1 deficient fetal liver into lethally irradiated congenic C57Black/6 mice. BMD was measured 18 weeks after transplant. Shown are the results of determinations on 5 mice in each group. […] Representative of 5 different mice with each treatment. E. Soft tissue from patients stained for semaphorin 4D (original magnification 800×). On the left is soft tissue obtained at the time of hip replacement (Representative of 14). […] On the right is tissue obtained at time of prosthesis revision (representative of 12).
Background: In western blotting, separated proteins are transferred to a membrane and probed.

Assay [6] deals with RANK. Description: RANK staining of calvarium in murine model of wear particle-induced osteolysis. The class given is in vivo, mice. As to conditions: wear particles 4 weeks; saline containing CGS21680 1 μM. On the procedure:
as §2

For assay [7], the system named is RANKL. Description: RANKL staining of calvarium in murine model of wear particle-induced osteolysis. The class given is in vivo, mice. The note with it: wear particles 4 weeks; saline containing CGS21680 1 μM. On the procedure: as §2
For assay [8], the system named is NFκB p50/p105. The assay is described as follows: NFκB p50/p105 nuclear translocation in RAW264.7 cells with RANKL (Western blot). The format is cell-based, murine. As to conditions: CGS21680 1 μM; 30 min with RANKL; PKA-ERK1/2 mechanism. The protocol:
RAW264.7 cells were infected with lentiviral constructs expressing shRNA for the catalytic subunit of PKA or a scrambled control. Cells were incubated for 30 min in the presence of RANKL alone, plus CGS21680 (1 μM, CGS) or plus CGS and ZM241385 (1 μM, C+Z) before lysis, separation of nuclear and cytosolic fractions and analysis by Western Blot. Shown are representative Western Blots. Results in the bar graphs are expressed as the means of four independent experiments analyzed densitometrically and normalized to actin. Results were analyzed by two way ANOVA and Bonferroni post-hoc testing.

The subject of assay [9] is Unc5b. Description: Western blot of Unc5b in RAW264.7 cells differentiating to osteoclasts. The class given is cell-based, murine. The note with it: CGS21680 1 μM. On the procedure: as §3
Assay [10] has as its system sema4D-expressing cells. The assay is described as follows: Sema4D staining of calvarium in murine model of wear particle-induced osteolysis. The class given is in vivo. As to conditions: wear particle-treated mice; immunostaining. The protocol:
as §1, with “12). […] In this model ultra high molecular weight polyethylene particles (UHMWPE) are injected into an air pouch overlying the calvaria and the area of bone resorption is measured. […]” for “12).”

For assay [11], the system named is netrin-1. Description: Netrin-1 expression in inflammatory infiltrate in wear particle-induced osteolysis. The class given is in vivo. As to conditions: wear particle-induced osteolysis in mice. The protocol:
as §3
Staining for netrin-1 was carried out in collaboration with Dr. Kathryn Moore's laboratory, an internationally known expert on the role of this protein in macrophage function in atherosclerosis (van Gils, et al., Nat Immunol, 2012, 13(2): 136-43). […]

For assay [12], the system named is bone marrow cells induced to differentiate into osteoclasts. Description: Osteoclast differentiation of bone marrow cells with RANKL and M-CSF (TRAP+ osteoclasts). The class given is cell-based, mice. The protocol: as §3
Consistent with this observation it was shown that radiation chimeras with netrin-1^−/− replacement bone marrow have increased bone mineral density, as measured by Dexa scan (FIG. 4). […]

`CCNC(=O)[C@H]1O[C@@H](n2cnc3c(N)nc(NCCc4ccc(CCC(=O)O)cc4)nc32)[C@H](O)[C@@H]1O` [CGS21680]: the “semaphorin 4D expression by osteoclasts” value in assay [1] was “inhibits”. Also, the “new bone formation at sites of wear particle-induced osteolysis” value in assay [2] is given as “restored”. In addition, in assay [3], the “RANKL mRNA in differentiating osteoblasts” value is “diminishes RANKL mRNA”. Moreover, the “osteoprotegerin expression in calvarium” value in assay [4] was “increases osteoprotegerin expression”. Besides, the “netrin-1 in the supernate of RAW264.7 cells” value in assay [5] is recorded as “reduces netrin-1”. Besides, the “RANK expression in calvarium” value in assay [6] was “diminishes RANK”. For the same compound, the “RANKL expression in calvarium” value in [7] is on record as “diminishes RANK, RANKL”. In addition, the “NFκB p50/p105 nuclear translocation” value in [8] is on record as “inhibits”. Moreover, the Unc5b expression result in assay [9] is “reduces Unc5b”. Further, the “number of sema4D-expressing cells in the calvaria” value in assay [10] was “dramatically decreased; also recorded: diminishes recruitment of semaphorin 4D positive cells”. For the same compound, in assay [11], the “netrin-1 expression in the inflammatory infiltrate” value was “inhibits its expression”. Further, the “osteoclast differentiation in WT cells” value in assay [12] (CGS21680 1 μM, RANKL and M-CSF, WT bone marrow cells) is recorded as “reduces osteoclast differentiation”.

For the compound `Nc1nc(NCCc2ccc(O)cc2)nc2nc(-c3ccco3)nn12` [ZM241385], in [12] (WT cells with CGS21680 1 μM, netrin-1 250 ng/ml), the “reversal of the A2A receptor agonist (CGS21680) reduction of osteoclast differentiation” value is “reversed”.
